# Measurements as given in ChEMBL document CHEMBL6103543, “Exploring the rhodanine universe: Design and synthesis of fluorescent rhodanine-based derivatives as anti-fibrillar and anti-oligomer agents against α-synuclein and 2N4R tau” (Bioorg Med Chem, 2024).
# Activity calls are given as the source filed them. The calls are words filed in the database; no cut-off is given here.
# Biological target: T1, Alpha-synuclein (Homo sapiens, UniProt P37840)
# Test: Inhibition of recombinant alpha-synuclein (unknown origin) fibril formation assessed as thioflavin T fluorescence intensity at 100 uM measured every 20 mins by Thioflavin T fluorescence assay (reference value: 100 %)
row,Structure (SMILES),Flu intensity [%]
1,O=C(O)CN1C(=O)/C(=C/c2coc3ccccc23)SC1=S,24.7
2,O=C(O)CN1C(=O)/C(=C/c2cc3ccccc3[nH]2)SC1=S,0.1
3,O=C(O)CCN1C(=O)/C(=C/c2cc3ccccc3[nH]2)SC1=S,0.5
4,O=C(O)CN1C(=O)/C(=C/c2csc3ccccc23)SC1=S,3.2
5,O=C(O)c1ccc(N2C(=O)/C(=C/c3nc4ccccc4s3)SC2=S)cc1O,25
6,COc1ccc2c(/C=C3\SC(=S)N(CCC(=O)O)C3=O)c[nH]c2c1,> 100
7,O=C(O)CN1C(=O)/C(=C/c2cccc3cc[nH]c23)SC1=S,15.1
8,O=C(O)CCN1C(=O)/C(=C/c2cccc3cc[nH]c23)SC1=S,14.7
9,O=C(O)CCN1C(=O)/C(=C/c2csc3ccccc23)SC1=S,-0.05
10,O=C(O)CCN1C(=O)/C(=C/c2ccc3ccccc3n2)SC1=S,25
11,O=C(O)CN1C(=O)/C(=C/c2ccc3ccccc3n2)SC1=S,5.4
12,O=C(O)c1ccc(N2C(=O)/C(=C/c3ccc4ccccc4n3)SC2=S)cc1,84.3
13,O=C(O)c1ccc(N2C(=O)/C(=C/c3csc4ccccc34)SC2=S)cc1O,56.7
14,O=C(O)c1ccc(N2C(=O)/C(=C/c3csc4ccccc34)SC2=S)cc1,70.4

# Biological target: T1, Alpha-synuclein
# Test: Inhibition of alpha-synuclein (unknown origin) oligomer formation assessed as reduction in cross linking at 100 uM preincubated with compound followed by Ru(BPY3) addition and measured after 1 sec light irradiation by coomassie blue staining based PICUP assay
row,Structure (SMILES),inhibition
1,O=C(O)CN1C(=O)/C(=C/c2coc3ccccc23)SC1=S,inactive
2,O=C(O)CN1C(=O)/C(=C/c2cc3ccccc3[nH]2)SC1=S,Active
3,O=C(O)CCN1C(=O)/C(=C/c2cc3ccccc3[nH]2)SC1=S,Active
4,O=C(O)CN1C(=O)/C(=C/c2csc3ccccc23)SC1=S,inactive
5,O=C(O)c1ccc(N2C(=O)/C(=C/c3nc4ccccc4s3)SC2=S)cc1O,inactive
6,COc1ccc2c(/C=C3\SC(=S)N(CCC(=O)O)C3=O)c[nH]c2c1,inactive
7,O=C(O)CN1C(=O)/C(=C/c2cccc3cc[nH]c23)SC1=S,Active; Weak Inhibition Observed
8,O=C(O)CCN1C(=O)/C(=C/c2cccc3cc[nH]c23)SC1=S,Active; Weak Inhibition Observed
9,O=C(O)CCN1C(=O)/C(=C/c2csc3ccccc23)SC1=S,inactive
10,O=C(O)CCN1C(=O)/C(=C/c2ccc3ccccc3n2)SC1=S,inactive
11,O=C(O)CN1C(=O)/C(=C/c2ccc3ccccc3n2)SC1=S,inactive
12,O=C(O)c1ccc(N2C(=O)/C(=C/c3ccc4ccccc4n3)SC2=S)cc1,inactive
13,O=C(O)c1ccc(N2C(=O)/C(=C/c3csc4ccccc34)SC2=S)cc1O,inactive
14,O=C(O)c1ccc(N2C(=O)/C(=C/c3csc4ccccc34)SC2=S)cc1,inactive
